According to a melting point compilation (Tetko et al.):

Row | melting point [°C] | Compound
1 | 56 to 58 | CCC(=O)Nc1cccc(CN)c1
2 | 73 to 75 | NCc1cnc(-c2ccc(C(F)(F)F)cc2)s1
3 | 194 to 196 | O=C(O)C1CCCN1C(=O)c1cc(Cl)ccc1Cl (stereo not given)
4 | 112 to 114 | COc1ccc(C(=O)NN)c(OC)c1
5 | 72 to 74 | NCc1ccc(-n2cnc3ccccc32)cc1
6 | 279 to 281 | O=C1Nc2c(F)ccc(Cl)c2C1=O
7 | 191 to 193 | CN(C)C(=O)Nc1ccc(C(=O)O)c(Cl)c1
8 | 224 to 226 | N#Cc1csc(C(=O)O)c1
9 | 60 to 65 | Cc1n[nH]c(C)c1S(=O)(=O)Cl
10 | 78 to 82 | O=Cc1cc(Cl)c2c(c1)OCCCO2
11 | 284 to 286 | COc1ccc2nc(C)cc(O)c2c1
12 | 228 to 230 | O=C(O)c1c[nH]c2cc(F)ccc12
13 | 170 to 172 | CC1Cc2ccccc2N1Cc1ccoc1C(=O)O (stereo not given)
14 | 190 to 192 | O=C(O)C1=NN(Cc2ccc(F)cc2)C(=O)CC1
15 | 159 to 161 | CC1(C)NC(=O)N(c2cccc(C#N)c2)C1=O
16 | 182 to 184 | CC(C)(C#N)N1CCN(C(C)(C)C#N)CC1
17 | 61 to 63 | CC(C)(O)CN1CCNCC1
18 | 228 to 230 | Cc1n[nH]c(SCC(=O)O)n1
19 | 44 to 46 | CNCCOc1ccc(OCc2ccccc2)cc1
20 | 169 to 171 | O=C(O)CC(C(=O)O)c1ccccc1F (stereo not given)
21 | 184 to 186 | C#CCn1cnc2c(N)ncnc21
22 | 37 to 39 | O=C(CC1CCCC1)N1CCNCC1
23 | 71 to 73 | Fc1cccc2c1CN=C1CCCN12
24 | 128 to 130 | O=C(O)c1ccc(Cn2cc(Br)cn2)o1
25 | 179 to 181 | NNC(=O)c1cnn(-c2ccccc2)c1
26 | 182 to 184 | O=C(Nc1nnc(C2CCCCC2)s1)OCC(F)(F)F

Row | melting point [°C] | Compound
27 | 92 to 94 | N#Cc1ccccc1Oc1ccc(N)cn1
28 | 211 to 213 | Oc1cccc(-c2nnco2)c1
29 | 250 to 252 | O=C(O)c1ccc2[nH]c(=O)c(=O)[nH]c2c1
30 | 232 to 234 | O=C(O)c1ccc(S(=O)(=O)C(F)F)cc1
31 | 190 to 192 | CCOC(=O)c1cc(N)cc(S(C)(=O)=O)c1
32 | 118 to 120 | CCOC(=O)c1cc(N)[nH]n1
33 | 54 to 56 | NC(=S)CO
34 | 39 to 41 | CCc1nc(N)no1
35 | 188 to 190 | Nc1nccc(-c2cccnc2)n1
36 | 269 to 271 | Nc1n[nH]c(C(=O)O)c1-c1ccccc1
37 | 222 to 224 | O=C(Nc1ccc(Cl)cc1)Nc1ccccc1Br
38 | 185 to 187 | O=C(O)C(=Cc1ccc(F)cc1)c1cccs1
39 | 129 to 131 | O=C(CCl)N(Cc1ccc(F)cc1)C12CC3CC(CC(C3)C1)C2
40 | 101 to 103 | COc1ccc2cc(N)ccc2n1
41 | 149 to 151 | NC(=S)Nc1cc(F)cc(F)c1
42 | 63 to 65 | O=C(O)C1CC1c1ccccc1OC(F)F (stereo not given)
43 | 266 to 268 | Cc1ccc(-c2nnc(S)o2)cc1
44 | 99 to 101 | Nc1ccc(-c2cc[nH]c2)cc1
45 | 84 to 86 | Cc1cc(Br)c2c(c1)C(=O)CCO2
46 | 175 to 190 | Cc1ccc(S(N)(=O)=O)cc1C(=O)O
47 | 69 to 71 | CC(C)S(=O)(=O)c1ccc(CCl)cc1
48 | 76 to 78 | N#CCCOc1ccc(Br)cc1
49 | 124 to 126 | Cc1cc(C(C)(C)C)cc(C)c1S(=O)(=O)N1CCNCC1
50 | 179 to 181 | COCCCNc1c(N)n(CC(C)C)c(=O)[nH]c1=O
51 | 216 to 220 | Cn1[nH]c(=O)nc1S
52 | 75 to 77 | CCOC(=O)C(NC(=O)C(C)C)C(=O)OCC

Row | melting point [°C] | Compound
53 | 379 to 381 | O=C(O)c1ccc2c(=O)[nH]c(S)nc2c1
54 | 40 to 42 | CC(C)Nc1cccnc1
55 | 126 to 128 | Cc1ncc(-c2ccc(N)cc2)o1
56 | 126 to 128 | COc1ccc(Cl)cc1-c1cc(N)[nH]n1
57 | 169 to 171 | CC(=O)C(CN1C(=O)c2ccccc2C1=O)C(C)=O
58 | 82 to 84 | CC(=O)c1nnn(-c2cccc(Cl)c2)c1C
59 | 171 to 173 | Ic1c[nH]c2ccncc12
60 | 259 to 261 | COC(=O)c1cc(C)nc2nc(S)[nH]c(=O)c12
61 | 98 to 100 | CCOc1ccc(S(=O)(=O)Cl)c2ccccc12
62 | 67 to 69 | CCCCC1NCCNC1=O (stereo not given)
63 | 123 to 125 | NC(=S)NCC1CCC1
64 | 164 to 166 | COc1ccc(C(N)=NO)cc1OC
65 | 170 to 172 | COC(=O)COc1ccc(C(=O)O)cc1OC
66 | 161 to 163 | Cc1cc([N+](=O)[O-])cc(C)c1N
67 | 125 to 127 | CCOC(=O)c1sc2nc(Cl)cc(C)c2c1C
68 | 128 to 130 | NS(=O)(=O)c1ccc(CC(=O)O)s1
69 | 148 to 150 | Nc1nc2cc(Br)ccc2[nH]1
70 | 145 to 147 | O=C(O)C(Cc1ccccc1Br)Cc1ccccc1Br
71 | 114 to 116 | O=c1c(C(O)(O)C(F)(F)F)coc2ccc(Cl)cc12
72 | 197 to 199 | NC(=S)c1cncnc1N
73 | 199 to 201 | O=C(O)c1cc(-c2cccs2)nc2ccccc12
74 | 167 to 169 | COc1ccc(C(=O)CNC(=O)CCC(=O)O)cc1
75 | 35 to 37 | CC(C)c1noc(-c2ccnc(Cl)c2)n1
76 | 59 to 61 | OCCOc1cc(Cl)ccc1Cl
77 | 139 to 141 | Nc1sc2c(c1C(=O)c1ccc(F)cc1)CCC2
78 | 189 to 191 | COC(=O)c1cc2c(Br)ccc(F)c2[nH]1

Row | melting point [°C] | Compound
79 | 324 to 326 | O=C1CNC(=O)c2ccccc2N1
80 | 228 to 230 | CS(=O)(=O)Nc1ccc(O)c(C(=O)O)c1
81 | 107 to 109 | COC(=O)C(C#N)=Cc1cccc(F)c1
82 | 179 to 181 | CCOC(=O)c1cnc(O)nc1C
83 | 99 to 101 | CNC1(C(N)=O)CCCC1
84 | 169 to 171 | CC(=O)c1cccc(OCc2cc(C(=O)O)no2)c1
85 | 142 to 144 | COc1cc(N)c(C(N)=O)cc1OC
86 | 49 to 51 | O=C(c1cccc(F)c1)N1CCCNCC1
87 | 86 to 88 | Cc1cccc(OCC(=O)N2CCNCC2)c1C
88 | 154 to 156 | O=C(O)CSc1nc(-c2cccnc2)no1
89 | 69 to 71 | COc1ccc(Br)cc1Cl
90 | 49 to 51 | CNS(N)(=O)=O
91 | 87 to 89 | Cc1ccc(C)n1Cc1ccccc1Cl
92 | 69 to 71 | CCC1CCCCC1NC(=O)c1ccnc(F)c1 (stereo not given)
93 | 109 to 111 | NNc1c(Cl)cc(F)cc1Cl
94 | 102 to 104 | Cc1cc(N)n(-c2ccccc2C(F)(F)F)n1
95 | 114 to 116 | O=S1(=O)CCC(S(=O)(=O)Cl)C1 (stereo not given)
96 | 172 to 174 | COc1cc(C(=O)O)ccc1OCc1csc(C)n1
97 | 64 to 66 | Cc1cc(C)cc(-n2ncc(C=O)n2)c1
98 | 130 to 137 | Cc1sc2nc(-c3cccs3)nc(Cl)c2c1C
99 | 192 to 194 | NS(=O)(=O)c1ccc(C(=O)NCC(=O)O)cc1
100 | 106 to 108 | CCCC(=O)Nc1cccc(N)c1C
101 | 220 to 222 | O=C(O)CCNC(=O)c1cccs1
102 | 96 to 98 | CC1(c2ccsc2)CC(=O)NC1=O (stereo not given)
103 | 204 to 206 | COc1ccc(NCCCC(=O)O)cc1
104 | 112 to 114 | Clc1ccc2cccc(Br)c2n1

Row | Compound | melting point [°C]
105 | CNc1ccc([N+](=O)[O-])c2nonc12 | 257 to 259
